One block for each compound: values may come before it.
What was measured:
[1] = Fluorescence titration with NaCl, Bindfit 1:1 analysis, pH 7.4 10 mM aqueous HEPES buffer; type: binding; design: key to Association constant Ka Cl^−: NB: No binding observed; conditions: for Association constant Ka Cl^−: 10 μM receptors in 10 mM aqueous HEPES buffer solution, pH = 7.4, 1:1 host:guest, errors in brackets; for fluorescence response to Cl^−: excitation at 342 nm, pH 7.4 HEPES
Experimental: (§1) Fluorescence titration experiments were performed using a Horiba Duetta at 293 K. The host molecules (XB1-3, and HB1-3) were dissolved in 10 mM HEPES aqueous buffer solution at pH 7.4 at a concentration of 10 μM. Na salts of the appropriate anion were dissolved in the solution of the host molecule to obtain a concentration. Aliquots of the anion solution were added to 1.00 mL of the host solution in a quartz cuvette, where the sample was then thoroughly mixed before fluorescence spectra were recorded. Association constants were obtained by global analysis using BindFit, using a host-guest 1:1 binding model.
(§2) The anion sensing properties were investigated in pH 7.4 aqueous HEPES buffer solution using fluorescence spectroscopy. At this pH value the protonated forms XB3H^+ and HB3H^+ are the dominant receptor species present in the aqueous solution. The amine pKa of XB3 (10.29) and HB3 (9.98) were experimentally determined by monitoring changes in fluorescence with pH. (FIG. 16).
(§3) The fluorescence emission, following excitation at 342 nm, was monitored upon the addition of sodium hydrosulfide and halide salts.
(§4) With XB2, both Br^− and I^− were sensed (FIG. 11), with the heavier halide also being detected by XB3H^+ (FIG. 13).
(§5) Bindfit analysis^23,24 of the titration data for XB and HB receptors was used to determine 1:1 host: guest stoichiometric anion association constants, as shown below in Table 1.

[2] = Fluorescence titration with NaBr, Bindfit 1:1 analysis, pH 7.4 10 mM aqueous HEPES buffer; type: binding; design: key to Association constant Ka Br^−: NB: No binding observed; conditions: for Association constant Ka Br^−: 10 μM receptors in 10 mM aqueous HEPES buffer solution, pH = 7.4, 1:1 host:guest, errors in brackets; for fluorescence response to Br^−: excitation at 342 nm, pH 7.4 HEPES
Experimental: as §1, §2, §3, §4, §5

[3] = Fluorescence titration with NaI, Bindfit 1:1 analysis, pH 7.4 10 mM aqueous HEPES buffer; type: binding; design: key to Association constant Ka I^−: NB: No binding observed; conditions: for Association constant Ka I^−: 10 μM receptors in 10 mM aqueous HEPES buffer solution, pH = 7.4, 1:1 host:guest, errors in brackets; for fluorescence response to I^−: excitation at 342 nm, pH 7.4 HEPES
Experimental: as §1, §2, §3, §4, §5

[4] = Fluorescence titration with NaHS, Bindfit 1:1 analysis and LoD, pH 7.4 10 mM aqueous HEPES buffer; type: binding; design: key to Association constant Ka HS^− / LoD, Limit of Detection for HS−: NB: No binding observed; conditions: for Association constant Ka HS^−: 10 μM receptors in 10 mM aqueous HEPES buffer solution, pH = 7.4, 1:1 host:guest, errors in brackets; for LoD, Limit of Detection for HS−: 10 μM receptors in 10 mM aqueous HEPES buffer, pH 7.4
Experimental: as §1, §2
The fluorescence emission, following excitation at 342 nm, was monitored upon the addition of sodium hydrosulfide and halide salts. […]
as §5

[5] = Fluorescence emission change on addition of NaCl, NaBr, NaI, NaHS in pH 7.4 HEPES buffer (any anion); type: binding
Experimental: as §1, §3, §4

[6] = pKa determined by monitoring changes in fluorescence with pH; type: physicochemical; conditions: for pKa1 / pKa2: emission intensity change with changing pH; for amine pKa: monitoring changes in fluorescence with pH
Excerpt: FIG. 16. XB3: a) XB3 emission intensity change with decreasing pH; b) Emission intensity change for select wavelengths with changing pH; pKa1=4.07 (±0.01), pKa2=10.29 (±0.01). HB3: a) HB3 emission intensity change with decreasing pH; b) Emission intensity change for select wavelengths with changing pH; pKa1=5.91 (±0.07), pKa2=9.98 (±0.01).
as §2

[7] = Electrospray mass spectrometry monitoring for reaction with excess HS^−; type: physicochemical; conditions: 10 μM in 10 mM HEPES aqueous buffer (7.4 pH), excess equivalents of HS^−
Excerpt: (§6) However, the increase in binding strength comes at the expense of a diminished degree of selectivity for HS^− as XB2 also binds Br^− and in particular I^− strongly.

[8] = Fluorescence response of BODIPY receptors in H2O/30% ACN upon titration with various anions; type: binding; conditions: 70% water/30% acetonitrile
Excerpt: (§7) Any observed fluorescence quenching in water could be readily circumvented by addition of a small amount of organic co-solvent. Preliminary solution-phase fluorescence sensing studies of both receptors were thus carried out in 70% water/30% acetonitrile.

Water solubility = type: physicochemical
[9] = Fluorescence titration of XB4 with NaCl in unbuffered water, BindFit; type: binding; design: key: N.B.: No Binding; conditions: unbuffered water at 298 K; errors in parentheses
Experimental: (§8) Fluorescence titrations of XB4 were carried out with chloride, bromide, iodide and hydrosulfide.
(§9) BindFit analysis for each anion to determine binding isotherms (FIG. 20), and 1:1 stoichiometric association constants, shown in Table 2, was also conducted for XB4.

[10] = Fluorescence titration of XB4 with NaBr in unbuffered water, BindFit; type: binding; conditions: unbuffered water at 298 K
Experimental: as §8, §9

[11] = Fluorescence titration of XB4 with NaI in unbuffered water, BindFit; type: binding; conditions: unbuffered water at 298 K
Experimental: as §8, §9

[12] = Fluorescence titration of XB4 with NaSH in unbuffered water, BindFit; type: binding; conditions: unbuffered water at 298 K
Experimental: as §8, §9

[13] = Fluorescence titration of buffered receptor against NaOH; conditions: buffered 10 μM receptor
Excerpt: as §6

[14] = cited from earlier work
[15] = Solution-phase fluorescence sensing of BODIPY receptors in 70% water/30% acetonitrile; type: binding
Excerpt: as §7

[16] = excitation at 342 nm, pH 7.4 HEPES

Compound: COCCOCCOCCOc1cc(COc2ccc3cc(-n4nnc(-c5cc(-c6nnn(-c7cc8ccc(OCc9cc(OCCOCCOCCOC)c(OCCOCCOCCOC)c(OCCOCCOCCOC)c9)cc8oc7=O)c6I)c[n+](C)c5)c4I)c(=O)oc3c2)cc(OCCOCCOCCOC)c1OCCOCCOCCOC.O=S(=O)([O-])C(F)(F)F [XB2]
Association constant Ka Cl^− [1]: NB
fluorescence response to Cl^− [1]: no change was observed
Association constant Ka Br^− [2]: 60800 M⁻¹
fluorescence response to Br^− [2]: sensed
Association constant Ka I^− [3]: 103000 (24000) M^−1
fluorescence response to I^− [3]: sensed
Association constant Ka HS^− [4]: 158000 (31000) M^−1
quenching on addition of HS^− [4, 16]: 45%

Compound: COCCOCCOCCOc1cc(COc2ccc3cc(-n4cc(-c5cncc(-c6cn(-c7cc8ccc(OCc9cc(OCCOCCOCCOC)c(OCCOCCOCCOC)c(OCCOCCOCCOC)c9)cc8oc7=O)nn6)c5)nn4)c(=O)oc3c2)cc(OCCOCCOCCOC)c1OCCOCCOCCOC [HB1, reference compound]
Association constant Ka Cl^− [1]: NB
Association constant Ka Br^− [2]: NB
Association constant Ka I^− [3]: NB
Association constant Ka HS^− [4]: NB
LoD, Limit of Detection for HS− [4]: NB
fluorescent response to any anion [5]: only minor fluorescence perturbations

Compound: COCCOCCOCCOc1cc(COc2ccc3cc(-n4cc(CNCc5cn(-c6cc7ccc(OCc8cc(OCCOCCOCCOC)c(OCCOCCOCCOC)c(OCCOCCOCCOC)c8)cc7oc6=O)nn5)nn4)c(=O)oc3c2)cc(OCCOCCOCCOC)c1OCCOCCOCCOC [HB3, reference compound]
Association constant Ka Cl^− [1]: NB
Association constant Ka Br^− [2]: NB
Association constant Ka I^− [3]: NB
Association constant Ka HS^− [4]: NB
LoD, Limit of Detection for HS− [4]: NB
fluorescent response to any anion [5]: no fluorescent response to any anion
pKa1 [6]: 5.91 (±0.07)
pKa2 [6]: 9.98 (±0.01)
amine pKa [6]: 9.98

Compound: COCCOCCOCCOc1cc(COC(=O)c2cc(-n3cc(C4=C5C(C)=CC(C)=[N+]5[B-](F)(F)n5c(C)cc(C)c54)nn3)cc(-n3cc(C4=C5C(C)=CC(C)=[N+]5[B-](F)(F)n5c(C)cc(C)c54)nn3)c2)cc(OCCOCCOCCOC)c1OCCOCCOCCOC [HB-BDP-PEG, reference compound]
response for all anions, in particular HS^−, compared with XB-BDP-PEG [8]: significantly diminished
water solubility (Water solubility): generally water soluble

Compound: COCCOCCOCCN(CCCOc1ccc2cc(-n3nnc(CNCc4nnn(-c5cc6ccc(OCCCN(CCOCCOCCOC)CCOCCOCCOC)cc6oc5=O)c4I)c3I)c(=O)oc2c1)CCOCCOCCOC [XB4]
Association constant Ka Cl^− [9]: N.B.
coumarin fluorescence response to bromide [10]: switching off
Association constant Ka Br^− ([10]; errors in parentheses): >10^5 M^−1
coumarin fluorescence response to iodide [11]: switching off
Association constant Ka I^− ([11]; errors in parentheses): >10^5 M^−1
coumarin fluorescence response to hydrosulfide [12]: switching off
Association constant Ka HS^− ([12]; errors in parentheses): 7500 (660) M^−1

Compound: S [Compound H2S, hydrogen sulphide]
pKa [14]: 7.0

Compound: COCCOCCOCCOc1cc(COC(=O)c2cc(-n3nnc(C4=C5C(C)=CC(C)=[N+]5[B-](F)(F)n5c(C)cc(C)c54)c3I)cc(-n3nnc(C4=C5C(C)=CC(C)=[N+]5[B-](F)(F)n5c(C)cc(C)c54)c3I)c2)cc(OCCOCCOCCOC)c1OCCOCCOCCOC [XB-BDP-PEG]
fluorescence perturbation by I^− [15]: Smaller, but notable, perturbations
fluorescence perturbation by SCN^− [15]: Smaller, but notable, perturbations
fluorescence response to Br [15]: only very small responses
fluorescence response to Cl [15]: only very small responses
emission quenching by HS^− ([15]; preliminary): ≈ 65%
water solubility (Water solubility): generally water soluble

Second part, led by results:

reaction with HS^− (electrospray mass spectrometry) [7]: no evidence of reaction was observed
Compound: COCCOCCOCCOc1cc(COc2ccc3cc(-n4nnc(-c5cncc(-c6nnn(-c7cc8ccc(OCc9cc(OCCOCCOCCOC)c(OCCOCCOCCOC)c(OCCOCCOCCOC)c9)cc8oc7=O)c6I)c5)c4I)c(=O)oc3c2)cc(OCCOCCOCCOC)c1OCCOCCOCCOC [XB1]
Association constant Ka Cl^− [1]: NB
fluorescence response to Cl^− [1]: no intensity diminutions
Association constant Ka Br^− [2]: NB
fluorescence response to Br^− [2]: no intensity diminutions
Association constant Ka I^− [3]: NB
fluorescence response to I^− [3]: no intensity diminutions
Association constant Ka HS^− [4]: 16500 (1600) M^−1
fluorescence intensity quenched ([4]; 10 equivalents of HS^−, excitation at 342 nm, pH 7.4 HEPES): 60%

pKa1 [6]: 4.07 (±0.01)
pKa2 [6]: 10.29 (±0.01)
amine pKa [6]: 10.29
change in fluorescence on titration against NaOH [13]: no change in fluorescence
Compound: COCCOCCOCCOc1cc(COc2ccc3cc(-n4nnc(CNCc5nnn(-c6cc7ccc(OCc8cc(OCCOCCOCCOC)c(OCCOCCOCCOC)c(OCCOCCOCCOC)c8)cc7oc6=O)c5I)c4I)c(=O)oc3c2)cc(OCCOCCOCCOC)c1OCCOCCOCCOC [XB3]
Association constant Ka Cl^− [1]: NB
fluorescence response to Cl^− [1]: no change was observed
Association constant Ka Br^− [2]: NB
Association constant Ka I^− [3]: 46000 (14000) M^−1
fluorescence response to I^− [3]: detected
Association constant Ka HS^− [4]: 5600 (530) M^−1
LoD, Limit of Detection for HS− ([4]; listed as XB3H^+): 24.6 µM
quenching on addition of HS^− [4, 16]: 38%

— patent publication US20250164397A1, “SULPHIDE SENSOR” (Oxford University Innovation Limited, priority 2021, published 2025)
